According to patent US20140171358A1, “ANTIMICROBIAL COMPOSITIONS COMPRISING DGLA AND NEOMYCIN SULFATE AND METHODS OF USE THEREOF” (Dignity Sciences Limited, priority 2012, published 2014):

Assays:
Type in all cases: cell-based
P. acnes = assay: agar dilution method: growth index and MIC on P. acnes (single compounds and combinations); set-up: key to Growth Index Plate 1 / Growth Index Plate 2 / Growth Index Plate 3 / Growth Index Avg: +++: confluent growth (comparable to control); ++: less confluent growth; +: marked reduction in growth to multiple tiny, single colonies; −: no growth present
Method: Several compounds including fatty acids such as DGLA, 15-OHEPA, and 15-HETrE were tested to determine their capacity to inhibit the growth of P. acnes. In an exemplary method, an agar dilution method was used to determine the minimum inhibitory concentration (MIC) of each tested compound. Briefly, the agar dilution method involved preparing a series of concentrations of each compound (e.g., nicotinamide, benzoyl peroxide, adapalene, metronidazole, DGLA, 15-OHEPA, and 15-HETrE) in a Reinforced Clostridial Agar (RCA) media that facilitates growth of P. acnes under anaerobic conditions. An inoculum of P. acnes was prepared by incubation of P. acnes for approximately seven days at 35-37° C. to achieve a ≧1.0 OD600 inoculum of P. acnes in RCM broth. A portion of this inoculum was then added to the surface of each plate as a 10 μL spot and incubated at 35-37° C. for 72 hours or more. Growth of P. acnes was then observed and compared to control plates in which no compound has been added, and positive inhibition plates prepared with erythromycin. […] The growth of P. acnes in the presence of nicotinamide, benzoyl peroxide, adapalene, metronidazole, DGLA, 15-OHEPA, and 15-HETrE was determined with varying concentrations of the compound (see, Table 2). Next, the MIC was determined as the concentration at which a marked reduction (+) occurs in the appearance of growth on the test plate (as per Clinical and Laboratory Standards Institute M11-A7). The compounds tested singly in Example 1 were tested in combination with one another to determine the capacity of the combination to inhibit the growth of P. acnes. In an exemplary method, the MIC was determined for each of the combination as described in Example 1. Briefly, test combinations included DGLA with nicotinamide, benzoyl peroxide, adapalene, or metronidazole; 15-HETrE with nicotinamide, benzoyl peroxide, adapalene, or metronidazole; and 15-OHEPA with nicotinamide, benzoyl peroxide, adapalene, or metronidazole. The tables below show the growth of P. acnes in the presence of 0.4 or 1.0 mg/mL DGLA with varying concentrations of nicotinamide, benzoyl peroxide, adapalene, or metronidazole (Table 3); the growth of P. acnes in the presence of 0.01 or 0.05 mg/mL 15-HETrE with varying concentrations of nicotinamide, benzoyl peroxide, adapalene, or metronidazole (Table 5); and the growth of P. acnes in the presence of 0.5 or 0.1 mg/mL 15-OHEPA with varying concentrations of nicotinamide, benzoyl peroxide, adapalene, or metronidazole (Table 7).

K. pneumoniae = assay: paper disc corrected zone of inhibition (CZOI) on Mueller Hinton agar
Method: (§1) The compounds tested in Example 1 were tested to determine their capacity to inhibit the growth of a variety of Gram-negative bacteria, Gram-positive bactgeria, fungi and yeast. In an exemplary method, Mueller Hinton agar plates were streaked with 500 μL of a 10^5 colony-forming units/mL culture and allowed to dry for at least one minute. A sterile paper disc (6 mm diameter) was then placed in the middle of each plate using sterile forceps. Twenty microliters of a solution of a known concentration of a test compound in filter-sterilized 95% ethanol were pipetted onto each test plate. Two streaked plates served as positive inhibitory controls and contained 6 mm sterile paper discs with standard tetracycline solutions. Two additional plates served as negative inhibition controls and each contained 6 mm sterile paper discs with 20 μL of filter-sterilized 95% ethanol. Two more plates served as positive growth controls and contained no paper disc or added antibacterial agent. The plates were incubated at 32.5±2° C. for 24±4 hours, after which the corrected zone of inhibition (“CZOI”) was determined as follows: For each plate, the length Y2 and width X2 of the test sample (paper disc) and length Y1 and width X1 of the clear zone were measured (FIG. 1). The CZOI was calculated from these values as shown by the equation below: [formula]

E. faecalis = assay: as above
Method: as §1

A. brasiliensis = assay: as above
Method: as §1

C. striatum = assay: as above
Method: as §1

S. epidermidis = assay: as above
Method: as §1

S. aureus = assay: as above
Method: as §1

C. albicans = assay: as above
Method: as §1

E. coli = assay: as above
Method: as §1

P. aeroginosa = assay: as above
Method: as §1

Q: Which “effect on growth of P. acnes on its own” value (P. acnes; 0.01 mg/ml) does the source give for `CCCCCC(O)/C=C/C=C\C/C=C\CCCCCCC(=O)O` (stereo not drawn) [15-HETrE, 15-Hydroxy-eicosa-8(Z),11(Z),13 (E)-trienoic acid] here?
A: no effect on its own

Q: And the “Growth Index Avg” value (P. acnes; varied compound 0.00001 mg/mL)?
A: +++

Q: And the “Growth Index Plate 1” value (P. acnes; varied compound 0.00001 mg/mL)?
A: +++

Q: What about the “Growth Index Plate 2” value (P. acnes; varied compound 0.00001 mg/mL) of the same molecule?
A: +++

Q: What about the “Growth Index Plate 3” value (P. acnes; varied compound 0.00001 mg/mL) of the same molecule?
A: +++

Q: And the “Growth Index Avg” value (P. acnes; varied compound 0.0001 mg/mL)?
A: +++

Q: What about the “Growth Index Plate 1” value (P. acnes; varied compound 0.0001 mg/mL) of the same molecule?
A: +++

Q: What about the “Growth Index Plate 2” value (P. acnes; varied compound 0.0001 mg/mL) of the same molecule?
A: +++

Q: And the “Growth Index Plate 3” value (P. acnes; varied compound 0.0001 mg/mL)?
A: +++

Q: What about the “Growth Index Avg” value (P. acnes; varied compound 0.001 mg/mL) of the same molecule?
A: +++

Q: What about the “Growth Index Plate 1” value (P. acnes; varied compound 0.001 mg/mL) of the same molecule?
A: +++

Q: What about the “Growth Index Plate 2” value (P. acnes; varied compound 0.001 mg/mL) of the same molecule?
A: +++

Q: What about the “Growth Index Plate 3” value (P. acnes; varied compound 0.001 mg/mL) of the same molecule?
A: +++

Q: What about the “Growth Index Avg” value (P. acnes; varied compound 0.01 mg/mL) of the same molecule?
A: ++

Q: What about the “Growth Index Plate 1” value (P. acnes; varied compound 0.01 mg/mL) of the same molecule?
A: ++

Q: What about the “Growth Index Plate 2” value (P. acnes; varied compound 0.01 mg/mL) of the same molecule?
A: +++

Q: What about the “Growth Index Plate 3” value (P. acnes; varied compound 0.01 mg/mL) of the same molecule?
A: ++

Q: What about the “Growth Index Avg” value (P. acnes; varied compound 0.05 mg/mL) of the same molecule?
A: −

Q: What about the “Growth Index Plate 1” value (P. acnes; varied compound 0.05 mg/mL) of the same molecule?
A: −

Q: What about the “Growth Index Plate 2” value (P. acnes; varied compound 0.05 mg/mL) of the same molecule?
A: −

Q: What about the “Growth Index Plate 3” value (P. acnes; varied compound 0.05 mg/mL) of the same molecule?
A: −

Q: What about the “Average CZOI” value (K. pneumoniae; 0.005 mg/mL) of the same molecule?
A: 2.5 mm

Q: What about the “Average CZOI” value (K. pneumoniae; 0.01 mg/mL) of the same molecule?
A: 2 mm

Q: And the “Average CZOI” value (K. pneumoniae; 0.05 mg/mL)?
A: 1 mm

Q: And the “Average CZOI” value (K. pneumoniae; 0.1 mg/mL)?
A: 1.5 mm

Q: And the “Average CZOI” value (K. pneumoniae; 0.5 mg/mL)?
A: 1 mm

Q: What about the “Lowest Concentration With Observed Inhibition” value (K. pneumoniae; K. pneumoniae) of the same molecule?
A: 0.005 mg/mL

Q: What about the “Most Effective Concentration Observed” value (K. pneumoniae; K. pneumoniae) of the same molecule?
A: 0.005 mg/mL

Q: What about the “Average CZOI” value (E. faecalis; 0.005 mg/mL) of the same molecule?
A: 3.75 mm

Q: What about the “Average CZOI” value (E. faecalis; 0.01 mg/mL) of the same molecule?
A: 5.75 mm

Q: What about the “Average CZOI” value (E. faecalis; 0.05 mg/mL) of the same molecule?
A: 3.75 mm

Q: What about the “Average CZOI” value (E. faecalis; 0.1 mg/mL) of the same molecule?
A: 3.25 mm

Q: What about the “Average CZOI” value (E. faecalis; 0.5 mg/mL) of the same molecule?
A: 2.75 mm

Q: What about the “Lowest Concentration With Observed Inhibition” value (E. faecalis; E. faecalis) of the same molecule?
A: 0.005 mg/mL

Q: And the “Most Effective Concentration Observed” value (E. faecalis; E. faecalis)?
A: 0.01 mg/mL

Q: What about the “Average CZOI” value (A. brasiliensis; 0.005 mg/mL) of the same molecule?
A: 1.75 mm

Q: And the “Average CZOI” value (A. brasiliensis; 0.01 mg/mL)?
A: 1 mm

Q: What about the “Average CZOI” value (A. brasiliensis; 0.05 mg/mL) of the same molecule?
A: 1.25 mm

Q: What about the “Average CZOI” value (A. brasiliensis; 0.1 mg/mL) of the same molecule?
A: 2.25 mm

Q: And the “Average CZOI” value (A. brasiliensis; 0.5 mg/mL)?
A: 3 mm

Q: And the “Lowest Concentration With Observed Inhibition” value (A. brasiliensis; A. brasiliensis)?
A: 0.005 mg/mL

Q: And the “Most Effective Concentration Observed” value (A. brasiliensis; A. brasiliensis)?
A: 0.5 mg/mL

Q: And the “Average CZOI” value (C. striatum; 0.005 mg/mL)?
A: 4 mm

Q: What about the “Average CZOI” value (C. striatum; 0.01 mg/mL) of the same molecule?
A: 3.25 mm

Q: And the “Average CZOI” value (C. striatum; 0.05 mg/mL)?
A: 2.25 mm

Q: What about the “Average CZOI” value (C. striatum; 0.1 mg/mL) of the same molecule?
A: 3.25 mm

Q: And the “Average CZOI” value (C. striatum; 0.5 mg/mL)?
A: 1.5 mm

Q: What about the “Lowest Concentration With Observed Inhibition” value (C. striatum; C. striatum) of the same molecule?
A: 0.005 mg/mL

Q: And the “Most Effective Concentration Observed” value (C. striatum; C. striatum)?
A: 0.05 mg/mL

Q: And the “Average CZOI” value (S. epidermidis; 0.005 mg/mL)?
A: 1.75 mm

Q: What about the “Average CZOI” value (S. epidermidis; 0.01 mg/mL) of the same molecule?
A: 3 mm

Q: And the “Average CZOI” value (S. epidermidis; 0.05 mg/mL)?
A: 1 mm

Q: And the “Average CZOI” value (S. epidermidis; 0.1 mg/mL)?
A: 1 mm

Q: What about the “Average CZOI” value (S. epidermidis; 0.5 mg/mL) of the same molecule?
A: 1.75 mm

Q: And the “Lowest Concentration With Observed Inhibition” value (S. epidermidis; S. epidermidis)?
A: 0.005 mg/mL

Q: And the “Most Effective Concentration Observed” value (S. epidermidis; S. epidermidis)?
A: 0.01 mg/mL

Q: And the “Average CZOI” value (S. aureus; 0.005 mg/mL)?
A: 2 mm

Q: And the “Average CZOI” value (S. aureus; 0.01 mg/mL)?
A: 2.5 mm

Q: And the “Average CZOI” value (S. aureus; 0.05 mg/mL)?
A: 0.75 mm

Q: What about the “Average CZOI” value (S. aureus; 0.1 mg/mL) of the same molecule?
A: 1.75 mm

Q: What about the “Average CZOI” value (S. aureus; 0.5 mg/mL) of the same molecule?
A: 1 mm

Q: What about the “Lowest Concentration With Observed Inhibition” value (S. aureus; S. aureus) of the same molecule?
A: 0.005 mg/mL

Q: And the “Most Effective Concentration Observed” value (S. aureus; S. aureus)?
A: 0.01 mg/mL

Q: And the “Average CZOI” value (C. albicans; 0.005 mg/mL)?
A: 2 mm

Q: What about the “Average CZOI” value (C. albicans; 0.01 mg/mL) of the same molecule?
A: 1.75 mm

Q: What about the “Average CZOI” value (C. albicans; 0.05 mg/mL) of the same molecule?
A: 1.25 mm

Q: What about the “Average CZOI” value (C. albicans; 0.1 mg/mL) of the same molecule?
A: 1.5 mm

Q: What about the “Average CZOI” value (C. albicans; 0.5 mg/mL) of the same molecule?
A: 1.25 mm

Q: What about the “Lowest Concentration With Observed Inhibition” value (C. albicans; C. albicans) of the same molecule?
A: 0.005 mg/mL

Q: What about the “Most Effective Concentration Observed” value (C. albicans; C. albicans) of the same molecule?
A: 0.005 mg/mL

Q: And the “Average CZOI” value (E. coli; 0.005 mg/mL)?
A: 1.5 mm

Q: And the “Average CZOI” value (E. coli; 0.01 mg/mL)?
A: 2 mm

Q: What about the “Average CZOI” value (E. coli; 0.05 mg/mL) of the same molecule?
A: 1 mm

Q: What about the “Average CZOI” value (E. coli; 0.1 mg/mL) of the same molecule?
A: 1.25 mm

Q: And the “Average CZOI” value (E. coli; 0.5 mg/mL)?
A: 1 mm

Q: What about the “Lowest Concentration With Observed Inhibition” value (E. coli; E. coli) of the same molecule?
A: 0.005 mg/mL

Q: What about the “Most Effective Concentration Observed” value (E. coli; E. coli) of the same molecule?
A: 0.01 mg/mL

Q: What about the “Average CZOI” value (P. aeroginosa; 0.005 mg/mL) of the same molecule?
A: 1.5 mm

Q: What about the “Average CZOI” value (P. aeroginosa; 0.01 mg/mL) of the same molecule?
A: 1.5 mm

Q: And the “Average CZOI” value (P. aeroginosa; 0.05 mg/mL)?
A: 1 mm

Q: And the “Average CZOI” value (P. aeroginosa; 0.1 mg/mL)?
A: 1.5 mm

Q: What about the “Average CZOI” value (P. aeroginosa; 0.5 mg/mL) of the same molecule?
A: 1 mm

Q: What about the “Lowest Concentration With Observed Inhibition” value (P. aeroginosa; P. aeroginosa) of the same molecule?
A: 0.005 mg/mL

Q: What about the “Most Effective Concentration Observed” value (P. aeroginosa; P. aeroginosa) of the same molecule?
A: 0.005 mg/mL
